Experimental data published in patent publication US20180280528A1, “ANTIFOLATE CONJUGATES FOR TREATING INFLAMMATION” (ENDOCYTE, INC., priority 2015, published 2018).
Like-named read-outs stand apart in the source and are kept apart here.

Columns and labels:
human THP-1-FRβ cells = assay: Cell viability (XTT) assay, THP-1-FRβ; type: cell-based
Experimental: (§1) All cells were grown in a folate-free RPMI1640 medium (Gibco BRL) (FFRPMI) containing 10% heat-inactivated fetal calf serum (HIFCS) and antibiotics, and maintained under a 5% CO2 atmosphere using standard cell culture techniques.
(§2) After a 2 h exposure, the drug-containing media were replaced and the cells were allowed to incubate further for 72 h. The cell viability was assessed by adding XTT (2,3-bis(2-methoxy-4-nitro-5-sulfo-phenyl)-2H-tetrazolium-5-carboxanilide) to the culture medium for 3 h following the manufacturer's instructions. All results were expressed as % absorbance (minus background) relative to the untreated control cells. See results in FIG. 2A and FIG. 2B.
(§3) Importantly, the observed anti-proliferative effect was 100% competable in the presence of excess FA, indicating a FR-specific mode of action.

[1] = system: mouse RAW264.7 macrophage cells; assay: Cell viability (XTT) assay, RAW264.7; type: cell-based
Experimental: as §1, §2, §3

[2] = 500 nM, 37° C., two hours
Experimental: Blood samples were maintained at 37° C. for 30 minutes prior to spiking the analyte into 2.5 mL blood at 500 nM. At time 0 and every 30 minutes for two hours, blood samples were removed and centrifuged at 2000×g for 10 minutes to generate plasma. 50 μL aliquots of generated plasma were then transferred to a clean 1.2 mL plate containing N-Maleoyl-β-alanine, mannitol, and acetic acid. Samples were stored at −80° C. until being thawed for LC-MS/MS analysis.

[3] = 2 h exposure, 72 h chase, XTT, read-out: relative IC50, inhibition of cell proliferation

With COC(=O)[C@H](CSSC(C)(C)[C@H](NC(=O)[C@H](CCC(=O)NC[C@H](O)[C@@H](O)[C@H](O)[C@H](O)CO)NC(=O)[C@H](CCC(=O)O)NC(=O)[C@H](CCC(=O)NC[C@H](O)[C@@H](O)[C@H](O)[C@H](O)CO)NC(=O)[C@H](CCC(=O)O)NC(=O)[C@H](CCC(=O)NC[C@H](O)[C@@H](O)[C@H](O)[C@H](O)CO)NC(=O)CC[C@H](NC(=O)c1ccc(NCc2cnc3nc(N)[nH]c(=O)c3n2)cc1)C(=O)O)C(=O)O)NC(=O)CC[C@H](NC(=O)c1ccc(NCc2cnc3nc(N)nc(N)c3n2)cc1)C(=O)O [EC2319] as the molecule, how does the “concentrations with cytostatic effect” value (human THP-1-FRβ cells) read?
Its value is no less than 100 nM.

What about the “anti-proliferative effect competable in the presence of excess FA” value (human THP-1-FRβ cells; 100-fold excess FA) of the same molecule?
The value was 100%.

And the IC50 (human THP-1-FRβ cells; [3])?
Its IC50 is roughly 8.7 nM.

What about the “concentrations with cytostatic effect” value [1] of the same molecule?
The value was no less than 10 nM.

And the “anti-proliferative effect competable in the presence of excess FA” value ([1]; 100-fold excess FA)?
The value was 100%.

What about the IC50 [1, 3] of the same molecule?
Its IC50 is roughly 2.9 nM.

What about the “whole blood stability (percent remaining of intact conjugate, formation of EC1886)” value ([2]; fresh human blood) of the same molecule?
Its value is “superior stability profile than EC1669”.

What about the “whole blood stability (percent remaining of intact conjugate, formation of EC1886)” value ([2]; fresh rat blood) of the same molecule?
The value was “superior stability profile than EC1669”.
